Values joined by “and” are separate entries in the source; they are usually repeats but may differ in a detail not shown here. Equal entries are not always repeated.
Assays:
[1] = target: T1, hGH-receptor preparation extracted from rabbit liver plasma membranes (Oryctolagus cuniculus, UniProt P19941); assay: 125I-hGH displacement from hGH-receptor preparation; format: binding
T1 construct: enriched hGH-receptor preparation extracted from rabbit liver plasma membranes; from tissue; host or cells: rabbit liver plasma membranes
T1 sequence (P19941 19-638): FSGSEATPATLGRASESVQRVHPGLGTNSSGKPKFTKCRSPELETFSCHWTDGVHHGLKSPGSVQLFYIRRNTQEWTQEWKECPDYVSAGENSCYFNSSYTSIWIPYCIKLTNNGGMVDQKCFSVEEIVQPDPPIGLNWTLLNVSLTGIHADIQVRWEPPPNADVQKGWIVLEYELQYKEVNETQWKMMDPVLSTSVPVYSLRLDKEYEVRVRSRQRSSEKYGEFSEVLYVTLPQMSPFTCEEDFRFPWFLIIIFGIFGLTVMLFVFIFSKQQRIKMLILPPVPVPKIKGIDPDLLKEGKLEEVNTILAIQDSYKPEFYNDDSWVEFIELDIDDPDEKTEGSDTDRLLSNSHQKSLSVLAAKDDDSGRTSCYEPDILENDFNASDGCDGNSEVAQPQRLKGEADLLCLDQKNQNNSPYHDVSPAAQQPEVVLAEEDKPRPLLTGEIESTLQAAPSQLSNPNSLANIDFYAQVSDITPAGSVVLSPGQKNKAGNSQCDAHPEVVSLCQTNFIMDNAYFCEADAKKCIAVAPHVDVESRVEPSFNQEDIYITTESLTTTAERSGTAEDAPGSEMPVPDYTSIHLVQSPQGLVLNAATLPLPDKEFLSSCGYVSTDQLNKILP
Protocol: PEG40000-FMS-hGH (1 mg/ml) was incubated in 0.1 M phosphate buffer, 0.6% BSA and −2 mM NaN3 at 37° C. Aliquots were withdrawn at the indicated time points, and analyzed for their potencies to displace ^125I-hGH from enriched hGH-receptor preparation extracted from rabbit liver plasma membranes. Native hGH displaces ^125I-hGH in this assay half maximally at a concentration of 0.3±0.03 nM. […] PEG40000FMS-hGH (1 mg protein) was incubated as described above. At the indicated time points, 0.1 ml aliquots withdrawn and subjected to analytical HPLC analysis.
The hGH displacement assay was performed as previously described (Tsushima et al., 1980).

[2] = Clark et al., 1996; cited from earlier work
rat adipocytes [3] = assay: Lipogenesis ([U-14C]glucose incorporation into lipids) in rat adipocytes; format: cell-based
Protocol: (4A) Insulin (17.24 nmoles in 0.2 ml 0.01 M NaHCO3) reacted with increasing concentrations of PEG5000-Fmoc-OSu at a molar excess over the protein as indicated in the figure for 2 hours at 25° C. The number of free amino groups that remained unmodified were quantitated with TNBS.
PEG5000-Fmoc-insulin conjugates containing one and two moles of PEG5000-Fmoc/mole insulin were incubated at a concentration of 0.172 μM in 0.1 M NaHCO3-0.5% bovine serum albumin and 1 mM NaN3 at 37° C. At the indicated time points aliquots were analyzed (in several concentrations for each aliquot) for their lipogenic potencies in rat adipocytes.
Results are expressed as a percentage of maximal stimulation.
(ii) Rat adipocytes were prepared from fat pads of male Wistar rats (100-200 gr) by collagenase digestion as described (Rodbell, 1964). The fat pads were cut into small pieces with scissors and suspended in 3 ml of KRB buffer containing NaCl, 110 mM; NaHCO3, 25 mM; Kcl, 5 mM; KH2PO4, 1.2 mM; CaCl2, 1.3 mM; MgSO4, 1.3 mM; and 0.7% BSA (pH 7.4). […] Five ml of buffer was then added, and the cells were passed through a mesh screen. The cells were then allowed to stand for several minutes in a 15 ml plastic test tube at room temperature, floating, and the buffer underneath was removed. This procedure (suspension, floating, and removal of buffer underneath) was repeated three times.
(iii) Lipogenesis (incorporation of [U-^14C] glucose into the lipids of intact adipocytes). The incorporation of [U-^14C] glucose into adipose tissue in rat adipocytes was performed as described (Moody et al., 1974). Adipocyte suspensions (3×10^5 cells/ml) were divided into plastic vials (0.5 ml per vial) and incubated for 60 min at 37° C. under an atmosphere of carbogen with 0.2 mM [U-^14C]glucose, in either the absence or presence of insulin. Lipogenesis was terminated by adding toluene-based scintillation fluid (1.0 ml per vial) and the radioactivity in extracted lipids was counted.
Rat adipocytes were prepared from the fat pads of male Wistar rats (100-200 g) by collagenase digestion (Rodbel, 1964). Lipogenesis (during which [U^14-C] glucose was incorporated into the lipids) was performed using the procedure of Moody et al (Moody et al., 1974). Diabetes was induced by a single intravenous injection of freshly prepared streptozocin (STZ) solution (55 mg/kg body wt) as previously described (Meyerovitch et al., 1987). Rats were maintained at 24° C. under conditions of controlled lighting and were fed ad libitum. Blood samples for the analysis of blood glucose were taken from the tail veins and measured with a glucose analyzer (Beckman Instruments, Fullerton, Calif.) by the glucose oxidase method. Groups consisted of five Wistar rats weighing 170±5 g. Data are presented as means±SE.

CD1-mice = assay: Glucose-lowering potency of insulin and PEG5000-Fmoc-insulin in mice (SC or IP); format: in vivo, mouse
Protocol: Mice received SC, either native insulin (Zn^2+-free, 1.72 nmole/mouse in 0.2 ml PBS buffer) or (PEG5000-Fmoc)1-insulin (17.2 nmole/mouse, in 0.2 ml PBS buffer). Blood glucose levels were determined at the indicated time points. Each point is the arithmetic mean±SEM of blood glucose of five mice.
Groups of mice received IP either insulin (Zn^2+-free, 0.345 nmol/mouse, in 0.2 ml PBS buffer) or (PEG5000-Fmoc)1-insulin (3.45 nmoles/mouse, in 0.2 ml PBS buffer). Blood glucose levels were determined at the indicated time points. Each point in the figure is the arithmetic mean±SEM of five mice.
(iv) Glucose-lowering potency of insulin and its derivatives was determined in mice following administration under the conditions specified in each experiment. […] Each group consisted of 4-5 mice. Data are presented as means±SEM.
Native insulin (Zn^2+ free, 1.72 nmol/mouse) or (PEG5000-Fmoc)1-insulin (17.2 nmoles/mouse) were administered subcutaneously to groups of mice (n=5 in each group), and the glucose lowering profiles were determined. Native insulin reduced blood glucose level maximally at 30 min.
In order to differentiate between these factors, the subcutaneous compartment was bypassed by administering native insulin (Zn^2+-free, 0.345 nmoles/mouse, in 0.2 ml PBS buffer) or (PEG5000-Fmoc)1-insulin (3.45 nmoles/mouse, in 0.2 ml PBS buffer) intraperitoneally. The glucose lowering capacities were then monitored. Blood glucose levels were determined at different time points.

C57BL/6J male mice = assay: Food intake (re-feeding after 24 h starvation) in mice; format: in vivo, mouse
Protocol: Drinking water was provided at all times.
Results are average of four identical experiments.
Drinking water was provided at all times. […] A minimum interval of 1 h was introduced between injection and re-feeding to avoid a stress-dependent decrease in food intake. The amount of food consumed per group was determined at the end of the feeding period. Remaining chow was weighed after the 2 h re-feeding period and the cumulative food intake per 10 mice was calculated. Values of food intake in replicate experiments were normalized according to the saline controls. Results are expressed as food intake per 10 mice±SD from 2-5 replicate experiments.
(vi) Statistical analysis. The significance of differences in food consumption was determined by the Student's t-test, using the total weight of food consumed by each group of 10 mice as a single value. A saline-injected group of 10 mice was included in each experiment as a control. A two-tailed, paired t-test was performed between the control and treated groups.

[4] = Hydrolysis of conjugates / release of parent drug upon incubation at pH 8.5, 37° C. (HPLC or TNBS)
[5] = tested on: Escherichia coli (E. coli strain N-4156-W.T); assay: Inhibition of E. coli replication (antibacterial potency of gentamicin and PEG-Fmoc-gentamicin); format: cell-based
[6] = human, in vivo; cited from earlier work
rat adipocytes [7] = assay: Lipogenesis ([U-14C]glucose incorporation into lipids) in rat adipocytes; format: cell-based; details: Example 34 assay, 2 h at 37° C.; HSA conjugates taken as 24±3 μg insulin per mg HSA
[8] = Pharmacokinetic profile of SC 125I-insulin and 125I-HSA in rats; details: 10 μg 125I-labeled protein
Protocol: Blood aliquots obtained from the tail vein at the indicated time points were spotted onto Whatman #3 paper and weighed immediately. Each paper was washed with 10% TCA and measured for its radioactive content. […] Each point in the figure represents the arithmetic mean of 5 rats±SE.
Rats were maintained at 24° C. under conditions of controlled lighting and were fed ad libitum. […] Data are presented as means±SE.
For comparison, we subcutaneously administered ^125I-insulin under similar experimental conditions.

[9] = SC 5 nmol/mouse, 18 h prior to re-feeding

(PEG40-FMS)2-hGH: two PEG40-FMS moieties linked to hGH
native-receptor binding capacity following 50 hours of incubation ([1]; 37° C., normal rat serum or pH 8.5): 70-80%

(PEG5000)5 hGH: hGH with about five PEG5000 chains linked irreversibly (Clark et al., 1996)
biological potency of hGH [2]: less than 0.1%

(PEG5000-Fmoc)1-insulin: about one mol PEG-Fmoc per mol insulin
lipogenic activity, % of native potency (rat adipocytes [3]; after 2 hours at pH 8.5, 37° C.): 16% | lipogenic activity, % of native potency (rat adipocytes [3]; after 4 hours at pH 8.5, 37° C.): 24% | lipogenic activity, % of native potency (rat adipocytes [3]; after 10 hours at pH 8.5, 37° C.): 30% | lipogenic activity, % of native potency (rat adipocytes [3]; after 17 hours at pH 8.5, 37° C.): 36% | lipogenic activity, % of native potency (rat adipocytes [3]; after 80 hours at pH 8.5, 37° C.): 95% | biological (lipogenic) potency of the native hormone (rat adipocytes [3]; prior to hydrolysis / time 0): 7±1% | return to normoglycemia, slower than native hormone (CD1-mice; IP administration): 3.4 fold | time of maximal fall of circulating glucose (CD1-mice; IP, 3.45 nmoles/mouse): 1.0 h | time of return to normal glucose values after administration (CD1-mice; IP, 3.45 nmoles/mouse): 6 h | additional time maintained at the low glucose level (CD1-mice; SC, 17.2 nmoles/mouse): 4 h | time of maximal lowering of circulating glucose (CD1-mice; SC, 17.2 nmoles/mouse): 4 h | half time of return to normoglycemic values relative to native insulin (CD1-mice; single SC administration): 6.7 fold

(PEG5000-Fmoc)2-insulin: insulin conjugate containing two moles of PEG5000-Fmoc/mole insulin
lipogenic activity, % of native insulin potency (rat adipocytes [3]; after 30±2 hours at pH 8.5, 37° C.): 45±3% | lipogenic activity, % of native insulin potency (rat adipocytes [3]; after 80±4 hours at pH 8.5, 37° C.): 90% | lag period before regeneration of lipogenic potency (rat adipocytes [3]; incubation at pH 8.5, 37° C.): 10 ± 1 h and 10 h

Nα-Nε-diacetyl-PYY3-36: PYY3-36 acetylated at its two amino groups [reference compound]
food consumed in 2 h re-feeding (C57BL/6J male mice; 20 μg per mouse): 10.54±0.08 g chow per 10 mice

PEG40-FMS-PYY3-36: 1:1 conjugate of PEG40-SH and MAL-FMS-PYY3-36
food consumed in 2 h re-feeding (C57BL/6J male mice; [9]): 4.7±0.14 g chow per 10 mice | reduction in food intake compared with saline (C57BL/6J male mice; [9]): 52% | reduction in food intake (C57BL/6J male mice; SC 5 nmol/mouse, 24 h prior to re-feeding): 27% | half-life of satiety effect, longer than unmodified PYY3-36 (C57BL/6J male mice; mouse, in vivo): 8 fold | cumulative amount of free PYY3-36, % of input conjugate ([4]; after 40 h): 79%

PEG40-FMS-hGH
receptor binding affinity ([1]; in vitro, prior to incubation): no receptor binding affinity | k (h^−1), slope of ln [PEG-FMS conjugate] against time [4]: 0.059 h^−1

PEG40-PYY3-36: Irreversibly pegylated PYY3-36, one PEG40 residue per PYY3-36 [reference compound]
biological activity of irreversibly pegylated PYY3-36 on food intake (C57BL/6J male mice; SC 5 nmol/mouse, 1 h prior to re-feeding): No significant reduction in food intake

PEG5000-Fmoc-insulin: insulin preparations with 0.3 to 2.2 mol PEG5000-Fmoc incorporated per mol insulin
biological (lipogenic) potency relative to native insulin (rat adipocytes [3]; 0.3 mol PEG5000-Fmoc/mol insulin incorporated): 87±4% | biological (lipogenic) potency relative to native insulin (rat adipocytes [3]; 0.6 mol PEG5000-Fmoc/mol insulin incorporated): 60±3% | biological (lipogenic) potency relative to native insulin (rat adipocytes [3]; 1.1 mol PEG5000-Fmoc/mol insulin incorporated): 8±1% | biological (lipogenic) potency relative to native insulin (rat adipocytes [3]; 1.5 mol PEG5000-Fmoc/mol insulin incorporated): 4±0.3% | biological (lipogenic) potency relative to native insulin (rat adipocytes [3]; 2.2 mol PEG5000-Fmoc/mol insulin incorporated): less than 1%

gentamicin
IC50 [5]: 220 ± 20 nM | concentration inhibiting E. coli replication half-maximally [5]: 0.1 µg/mL

hGH: Recombinant hGH
t1/2 of clearance from the circulatory system [6]: 0.333 to 0.5 h

insulin: Human (Zn2+-free) insulin [reference compound]
stimulation of lipogenesis above basal levels (rat adipocytes [3]): 4-6 times above basal and 4-5 times above basal | ED50 for stimulation of lipogenesis (rat adipocytes [3]; rat adipocytes, Example 28 assay): 0.2 ± 0.02 ng/mL and 0.15 ± 0.03 ng/mL | time of maximal fall of circulating glucose (CD1-mice; IP, 0.345 nmoles/mouse): 0.25 h | time of maximal reduction of blood glucose level (CD1-mice; SC, 1.72 nmol/mouse): 30 min | ED50 in lipogenic assay (rat adipocytes [7]): 0.3 ± 0.01 ng/mL and 0.3 ng/mL | t1/2 of decline in blood [8]: 9.0 ± 1.0 h | time of peak value in blood after administration [8]: 1 ± 0.1 h

Source: patent publication US9433683B2, “Reversible pegylated drugs” (Yeda Research and Development Co., Ltd., priority 2003, dated 2016)
